Values joined by “and” are separate entries in the source; they are usually repeats but may differ in a detail not shown here. Identical values can stand only once.
How the values were obtained:
[1] = target: T1, Porcine pancreatic α-amylase (Sus scrofa, UniProt P00690); test: α-amylase inhibition assay (starch, DNS reagent); format: biochemical; details: 0–100 µM, pre-incubation 10 min 37°C, pH 6.9; NS = not significant
T1 construct: purchased SRL, Mumbai (India)
T1 sequence (P00690 16-511): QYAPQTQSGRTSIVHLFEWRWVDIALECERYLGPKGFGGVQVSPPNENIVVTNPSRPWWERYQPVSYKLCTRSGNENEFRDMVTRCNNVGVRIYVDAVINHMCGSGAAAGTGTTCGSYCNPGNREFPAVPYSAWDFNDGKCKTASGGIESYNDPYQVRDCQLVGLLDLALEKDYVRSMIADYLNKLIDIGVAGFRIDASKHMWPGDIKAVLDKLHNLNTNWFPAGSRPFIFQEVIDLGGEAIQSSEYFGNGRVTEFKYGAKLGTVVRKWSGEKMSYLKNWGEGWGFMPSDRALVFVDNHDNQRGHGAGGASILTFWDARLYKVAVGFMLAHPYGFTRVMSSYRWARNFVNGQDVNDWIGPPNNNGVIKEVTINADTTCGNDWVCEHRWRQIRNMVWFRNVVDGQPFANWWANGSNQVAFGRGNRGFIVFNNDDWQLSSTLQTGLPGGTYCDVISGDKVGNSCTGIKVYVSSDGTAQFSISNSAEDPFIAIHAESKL
Experimental: Porcine pancreatic α-Amylase and Yeast α-Glucosidase were purchased from SRL, Mumbai (India). Glucose oxidase (GOD POD) kit was purchased from Piramal HealthCare Ltd, Mumbai (India). All other chemicals used were of analytical grade and purchased from Sigma Aldrich, St. Louis (USA) and SRL, Mumbai (India). […] Mass spectra were determined on a Shimadzu LC-MS. The elemental analyses were carried out using an Elemental Vario Cube CHNS rapid Analyzer. The progress of the reaction was monitored by TLC pre-coated silica gel G plates.
The α-amylase inhibition assay was performed according to a previous report. Porcine pancreatic α-amylase (3 units/mL) was dissolved in 0.1 M phosphate buffered saline, pH 6.9. […] The reaction was initiated by adding substrate solution (0.1% starch) to the incubation medium. After 10 min incubation, the reaction was stopped by adding 250 µL dinitrosalicylic (DNS) reagent (1% 3, 5-dinitrosalicylic acid, 0.2% phenol, 0.05% Na2SO3 and 1% NaOH in aqueous solution) to the reaction mixture. The reaction was terminated by keeping the reaction mixture in boiling water bath for 10 min. Thereafter, 250 µL of 40% potassium sodium tartarate solution was added to the mixtures to stabilize the colour. After cooling to room temperature in a cold water bath, the absorbance was recorded at 540 nm using a Varioskan multimode plate reader (Thermo Scientifics, USA). Acrabose was used as positive control. The percentage of inhibition was calculated using Abs Contol – Abs Sample ×100/Abs Control. Where Abs Control was the absorbance without sample, Abs sample was the absorbance of enzyme with compound.

α-Glucosidase = target: T2, α-Glucosidase (Saccharomyces cerevisiae, UniProt P53341); test: biochemical; details: 0–100 µM, pre-incubation 10 min 37°C, pH 6.9; NS = not significant
T2 construct: purchased SRL, Mumbai (India)
Experimental: Porcine pancreatic α-Amylase and Yeast α-Glucosidase were purchased from SRL, Mumbai (India). Glucose oxidase (GOD POD) kit was purchased from Piramal HealthCare Ltd, Mumbai (India). All other chemicals used were of analytical grade and purchased from Sigma Aldrich, St. Louis (USA) and SRL, Mumbai (India). All IR spectra were obtained in KBr disc on a Shimadzu FT-IR 157 Spectrometer. ^1H and ^13C NMR spectra were recorded on a Bruker WH-200 (400 MZ) spectrometer in CDCl3 or DMSO-d6 as solvent, using TMS as an internal standard and chemical shifts are expressed as ppm. Mass spectra were determined on a Shimadzu LC-MS. The elemental analyses were carried out using an Elemental Vario Cube CHNS rapid Analyzer. The progress of the reaction was monitored by TLC pre-coated silica gel G plates.
The α-glucosidase inhibitory activities of synthesized compounds were evaluated using the method developed by Tsujii et al.. Briefly, α-glucosidase was dissolved in phosphate buffer (50 mM, pH 6.9) and pre-treated with various concentrations of 1,3-benzoxazine derivatives (0–100 µM) independently for 10 min at 37°C. The reaction was initiated by the addition of 50 µL of 5 mM p-nitrophenyl- α -D-glucopyranoside solution in phosphate buffer (50 mM, pH 6.9). The enzyme reaction was carried out at 37°C for 30 min. The reaction was terminated by the addition of Na2CO3 (1 M). The enzymatic activity of α-glucosidase was quantified by measuring the absorption at 405 nm using a Varioskan multimode plate reader (Thermo Scientifics, USA). The inhibitory effect of compounds was defined as inhibitory activity (%) = (Abs Control – Abs Compound treated)/Abs Control ×100. Concentration-response assays were used to determine the potency (IC50) of 1,3-benzoxazine derivatives based on the logistic analysis of the concentration-response curve using Microsoft Excel.

[2] = tested on: overnight fasted Wistar rats; test: Oral maltose tolerance test; format: in vivo, rat; details: acarbose 3 mg/kg oral, maltose 3 g/kg, compared to maltose control
Description: (§1) Adult Wistar rats weighing 150–180 g were collected from the University Central Animal Facility and housed under a controlled environment. All animal experiments were approved by the Institutional Animal Ethical Committee (Order No : MGZ/2620/2011-12 Dated 31-01-2012; UOM/IAEC/18/2011), Department of Studies in Zoology, University of Mysore, Mysore and were in accordance with the guidelines of the Committee for the Purpose of Control and Supervision of Experiments on Animals (CPCSEA).
(§2) The experimental animals were randomly divided into 11 groups each consisting of 5 rats. […] Blood was collected from the tail vein to the tubes containing anticoagulant (2.5% trisodium citrate and 1.37% citric acid in the ratio 1∶5; anti-coagulant: blood) at time point 0 (just before sucrose/maltose administration), and subsequently at 30, 60, 90, 120 and 180 min after substrate (sucrose/maltose) administration. Plasma was separated by centrifuging the samples at 2000 rpm for 10 min and stored at −20°C until analysis. Plasma glucose concentration was determined by using the Glucose oxidase (GOD POD) kit according to the manufacturer’s protocol.

rat intestinal maltase = test: Intestinal α-glucosidase inhibitory assay, maltose as substrate; format: biochemical; details: rat intestinal acetone powder, maltose 37 mM, 30 min
Experimental: Intestinal α-glucosidase activity was determined by measuring the amount of glucose hydrolyzed from maltose or sucrose. Briefly, rat intestinal acetone powder was homogenized in 0.9% saline and the suspension was centrifuged at 10,000 g for 30 min at 4°C and the supernatant obtained was used as enzyme source. […] After the respective incubation period, reaction was terminated by keeping the samples in boiling water bath for 10 min. The concentration of glucose released from the reaction mixtures was determined by using Glucose oxidase (GOD POD) kit according to the manufacturer’s protocol. Results were expressed as percentage inhibition of intestinal maltase/sucrase activity.

[3] = tested on: overnight fasted Wistar rats; test: Oral sucrose tolerance test; format: in vivo, rat; details: acarbose 3 mg/kg oral, sucrose 3 g/kg, compared to sucrose control
Description: as §1, §2

T2 sequence (P53341 whole entry): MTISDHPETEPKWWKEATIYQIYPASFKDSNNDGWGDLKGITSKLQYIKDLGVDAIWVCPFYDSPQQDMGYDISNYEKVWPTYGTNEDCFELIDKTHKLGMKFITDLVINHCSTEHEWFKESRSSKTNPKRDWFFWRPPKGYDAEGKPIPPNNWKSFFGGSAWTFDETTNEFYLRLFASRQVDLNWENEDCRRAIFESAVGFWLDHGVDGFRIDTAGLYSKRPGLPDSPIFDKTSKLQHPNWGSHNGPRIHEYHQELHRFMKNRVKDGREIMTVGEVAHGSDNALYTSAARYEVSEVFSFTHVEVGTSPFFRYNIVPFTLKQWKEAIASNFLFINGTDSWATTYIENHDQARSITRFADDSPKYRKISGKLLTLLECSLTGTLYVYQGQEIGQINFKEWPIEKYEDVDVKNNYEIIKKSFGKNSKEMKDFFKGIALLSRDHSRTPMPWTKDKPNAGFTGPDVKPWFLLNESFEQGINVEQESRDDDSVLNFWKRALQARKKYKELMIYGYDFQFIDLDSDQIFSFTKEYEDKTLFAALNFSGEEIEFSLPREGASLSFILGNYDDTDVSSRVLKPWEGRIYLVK

SMILES	IC50 [1] [µM]	IC50 (α-Glucosidase)	melting point [°C]	plasma glucose concentration [2]	IC50 (rat intestinal maltase) [µM]	plasma glucose concentration [3]
Cc1ccc2c(c1)COC(c1c(C)[nH]c3ccccc13)N2 (centres unmarked) [compound 11, 6-methyl-2-(2-methyl-1H-indol-3-yl)-2,4-dihydro-1H-benzo[d][1,3]oxazine]	> 100	23.8 ± 0.1 µM				
Cc1[nH]c2ccccc2c1C1Nc2ccccc2CO1 (centres unmarked) [compound 3, 2-(2-methyl-1H-indol-3-yl)-2,4-dihydro-1H-benzo[d][1,3]oxazine]	10.6 ± 0.3	21.6 ± 0.1 µM				
Clc1ccc2c(c1)COC(c1c(-c3ccccc3)[nH]c3ccccc13)N2 (centres unmarked) [compound 9, 6-chloro-2-(2-phenyl-1H-indol-3-yl)-2,4-dihydro-1H-benzo[d][1,3]oxazine]	22.2 ± 0.1	27.8 ± 0.2 µM				
O=c1c(C2Nc3ccc(Cl)cc3CO2)coc2ccccc12 (centres unmarked) [compound 10, 3-(6-chloro-2,4-dihydro-1H-benzo[d][1,3]oxazin-2-yl)-4H-chromen-4-one]	> 100	31.9 ± 0.8 µM	141 to 143			
c1ccc2c(c1)COC(c1c[nH]c3ccccc13)N2 (centres unmarked) [compound 2, 2-(1H-indol-3-yl)-2,4-dihydro-1H-benzo[d][1,3]oxazine]	59.2 ± 1	32 ± 0.2 µM				
Cc1ccc2c(c1)COC(c1coc3ccccc3c1=O)N2 (centres unmarked) [compound 13, 3-(6-methyl-2,4-dihydro-1H-benzo[d][1,3]oxazin-2-yl)-4H-chromen-4-one]	51 ± 0.3	> 100 µM	202 to 204			
N#Cc1ccccc1-c1ccc(Cn2cc(C3Nc4ccccc4CO3)c3ccccc32)cc1 (centres unmarked) [compound 4]	> 100	> 100 µM				
CCCCc1nc(Cl)c(C2Nc3ccccc3CO2)[nH]1 (centres unmarked) [compound 6, 2-(2-butyl-4-chloro-1H-imidazol-5-yl)-2,4-dihydro-1H-benzo[d][1,3]oxazine]	18.5 ± 0.1	16 µM and 16.7 µM	80 to 82			
O=c1c(C2Nc3ccccc3CO2)coc2ccccc12 (centres unmarked) [compound 5, 3-(2,4-dihydro-1H-benzo[d][1,3]oxazin-2-yl)-4H-chromen-4-one]	23.3 ± 0.5	> 100 µM	142 to 144			
C[C@H]1O[C@H](O[C@H]2[C@H](O)[C@@H](O)[C@@H](O[C@H]3[C@H](O)[C@@H](O)C(O)O[C@@H]3CO)O[C@@H]2CO)[C@H](O)[C@@H](O)[C@@H]1N[C@H]1C=C(CO)[C@@H](O)[C@H](O)[C@H]1O (some centres unmarked) [Acarbose, reference compound]				significantly reduced the plasma glucose concentration at 30, 60, 90 min time intervals	3.5	only significant at 60 and 90 min time points
Clc1ccc2c(c1)NC(c1c[nH]c3ccccc13)OC2 (centres unmarked) [compound 8, 7-chloro-2-(1H-indol-3-yl)-2,4-dihydro-1H-benzo[d][1,3]oxazine]	26.4 ± 0.5	27.7 ± 1 µM				
Oc1ccc(C2Nc3ccccc3CO2)cc1 (centres unmarked) [compound 1, 4-(2,4-dihydro-1H-benzo[d][1,3]oxazin-2-yl)phenol]	20.4 ± 0.2	17.1 ± 0.1 µM	160 to 162			
Cc1ccc2c(c1)COC(c1c(-c3ccccc3)[nH]c3ccccc13)N2 (centres unmarked) [compound 12, 6-methyl-2-(2-phenyl-1H-indol-3-yl)-2,4-dihydro-1H-benzo[d][1,3]oxazine]	17.6 ± 0.3	20.5 ± 0.5 µM				

Reference: publication PMC4105438, “Novel Benzoxazine-Based Aglycones Block Glucose Uptake In Vivo by Inhibiting Glycosidases” (PLoS ONE, 2014)
